The values below come from patent US11660289B2 (Small Pharma Ltd, priority 2020, dated 2023).

Like-named read-outs stand apart in the source and are kept apart here.

The conditions of data set [1]: cited from earlier work.
A short description of data set [2]: Human liver mitochondrial fraction intrinsic clearance. The conditions noted are these: 0.5 mg/mL human liver mitochondrial fraction. It counts as in vitro ADME. The protocol:
Human Liver Mitochondrial (HLMt) fractions contain high quantities of MAO enzymes and therefore, provide a useful model system to measure the clearance of MAO substrates.
A series of investigations using HLMts were conducted to assess the effect of MAO on the metabolism of DMT and deuterated DMT analogues in vitro.

A short description of data set [3]: In vivo pharmacokinetic profile after IV and IM dosing in rats.
A short description of data set [4]: Human half-life and clearance of DMT calculated from modelled literature data. The conditions noted are these: in vivo; for clearance: read-out: clearance rate. An excerpt: DMT is metabolised very quickly in the human body. […] Based on these calculations, we reasoned that DMT is largely metabolised before reaching the human liver.
Data set [5] is described as follows: Human hepatocyte stability of D0, D6 and D8 5-MeO-DMT analogues. It counts as in vitro ADME. The conditions noted are these: cryopreserved pooled human hepatocytes in suspension, cryopreserved pooled human hepatocytes, 0.5×10^6 viable cells/mL, 60 min; for hepatocyte CLint: read-out: Qualified CLint (μL/min/10^6 cells); for half-life: read-out: Qualified t1/2. As to the method: (§1) Test compounds (5 μM) were incubated with cryopreserved hepatocytes in suspension. Samples were removed at 6 time points over the course of a 60 min experiment and test compounds were analysed by LC-MS/MS.
(§2) The final incubation volume was 500 μL.
(§3) Two control compounds were included with each species. Each compound was incubated for 0, 5, 10, 20, 40 and 60 min at 37° C. The reactions were stopped by transferring incubate into acetonitrile at the appropriate time points, in a 1:3 ratio. The termination plates were centrifuged at 3,000 rpm for 30 min at 4° C. to precipitate the protein.
(§4) Following protein precipitation, the sample supernatants were combined in cassettes of up to 4 compounds, internal standard was added and samples analysed using Cyprotex generic LC-MS/MS conditions.
(§5) From a plot of ln peak area ratio (compound peak area/internal standard peak area) against time, the gradient of the line is determined. Subsequently, half-life (t½) and intrinsic clearance (CLint) were calculated using the equations below:
(§6) Elimination rate constant (k)=(−gradient)
(§7) where V=Incubation volume (μL)/Number of cells

A short description of data set [6]: Rat hepatocyte stability of D0, D6 and D8 5-MeO-DMT analogues. It counts as in vitro ADME. The conditions noted are these: cryopreserved pooled rat hepatocytes, 0.5×10^6 viable cells/mL, 60 min; for half-life at 1 μM: cryopreserved pooled rat hepatocytes in suspension, read-out: Qualified t1/2; for hepatocyte CLint at 1 μM: read-out: Qualified CLint (μL/min/10^6 cells). As to the method: as §1, §2, §3, §4, §5, §6, §7

The subject of the next data set is Human hepatocytes. Nature of the data set: Human hepatocyte stability of D0, D6 and D8 5-MeO-DMT analogues. Conditions: for Fold change from 5-MeO-DMT, CLint / Fold change from 5-MeO-DMT, t1/2: Human hepatocytes; for Qualified CLint (μL/min/10^6 cells) / Qualified t1/2: cryopreserved pooled human hepatocytes, 0.5×10^6 viable cells/mL, 60 min. The class given is in vitro ADME. The protocol:
as §1, §2, §3, §4, §5, §6, §7

In a further data set the test system is Rat hepatocytes. In words: Rat hepatocyte stability of D0, D6 and D8 5-MeO-DMT analogues. The class given is in vitro ADME. Conditions: for Fold change from 5-MeO-DMT, CLint / Fold change from 5-MeO-DMT, t1/2: Rat hepatocytes; for Qualified CLint (μL/min/10^6 cells) / Qualified t1/2: cryopreserved pooled rat hepatocytes, 0.5×10^6 viable cells/mL, 60 min. The protocol:
as §1, §2, §3, §4, §5, §6, §7

For data set [7] the following is noted: in vivo; cited from earlier work.
Data set [8] concerns Human (mixed gender) hepatocytes. In words: Human hepatocyte intrinsic clearance of DMT and deuterated DMT analogues.
Description: Standard final incubation conditions are 1 μM compound in buffer containing nominally ˜0.5 million viable cells/mL, ˜0.9% (v/v) acetonitrile (MeCN) and ˜0.1% (v/v) DMSO (specific assay concentrations outlined above, section 2).
Samples are then centrifuged at 4 oc.
[9] abbreviates: calculated from modelled data of Timmermann et al.

As a reminder, the clearance is the volume of plasma or blood freed of the substance per unit of time.

Consider `CNCCc1c[nH]c2ccccc12` [NMT, N-Methyltryptamine], for which, in data set [1] (smoking, 50-100 mg), the “duration of “visuals”” value was 15 to 30 s.
Take `[2H]C([2H])([2H])N(C([2H])([2H])[2H])C([2H])([2H])Cc1c[nH]c2ccccc12` [SPL028viii, α,α,bis-deuterio-N,N-hexadeuterio-dimethyltryptamine]: the “Intrinsic Clearance (μL/min/mg protein)” value in [2] is given as 10.9 μL/min/mg protein. The “Overall exposure compared with DMT (SPL026)” value in [3] (rat plasma, following IV and IM dosing (FIGS. 1 to 3)) is recorded as “greater overall exposure”. For the same molecule, the “Total systemic exposure (mean AUC0-inf) compared to SPL026” value in data set [3] (rats, equivalent single IV and IM doses, ANOVA) is listed as “significantly higher total systemic exposure”. Moreover, in [3] (rats, following IM dosing), the “Cmax compared with DMT (SPL026)” value is “significantly higher”.
Turning to `CN(C)CCc1c[nH]c2ccccc12` [SPL026, N,N-dimethyltryptamine], in [2], the “Intrinsic Clearance (μL/min/mg protein)” value is 161.0 μL/min/mg protein and the “half-life” value is 8.6 min. The clearance in data set [4] (based on a 70 kg person) was 350 mL/min/kg. Further, in [4] (setting [9]), the half-life is about 5 min and the clearance is 24500 mL/min. Further, the “Difference in AUC0-inf between male and female groups” value in data set [3] (rats, 2 mg/kg IV fumarate) is “no significant difference”. For the same molecule, in [1] (in vivo), the duration of action result is recorded as “under 20 minutes”.
Take `O=C(c1ccc(OCCN2CCCCC2)cc1)c1c(-c2ccc(O)cc2)sc2cc(O)ccc12` [Raloxifene]: in data set [5], the hepatocyte CLint stood at 152 µL/min/1e6 cells and the half-life was determined as 9.13 min. In data set [6], the half-life at 1 μM stood at 11.1 min and the hepatocyte CLint at 1 μM came out at 125 µL/min/1e6 cells.
On to “d8-5-Methoxydimethyltryptamine [Compound D8-5MeO-DMT]”, for which, in the data set with Human hepatocytes, the “Fold change from 5-MeO-DMT, CLint” value turned out to be 1.8 fold; the “Fold change from 5-MeO-DMT, t1/2” value was found to be 1.8 fold; the “Qualified CLint (μL/min/10^6 cells)” value came out at 57.6 μL/min/10^6 cells; the “Qualified t1/2” value is given as 24.3 min. For the same molecule, in the data set on Rat hepatocytes, the “Fold change from 5-MeO-DMT, CLint” value was found to be 1.8 fold; the “Fold change from 5-MeO-DMT, t1/2” value was 1.8 fold; the “Qualified CLint (μL/min/10^6 cells)” value is given as 176.0 μL/min/10^6 cells; the “Qualified t1/2” value came to 7.89 min.
As for `[2H]C([2H])([2H])N(CCc1c[nH]c2ccc(OC)cc12)C([2H])([2H])[2H]` [Compound D6-5MeO-DMT, d6-5-Methoxydimethyltryptamine], in the data set on Human hepatocytes, the “Fold change from 5-MeO-DMT, CLint” value came out at 1.2 fold; the “Fold change from 5-MeO-DMT, t1/2” value was found to be 1.2 fold; the “Qualified CLint (μL/min/10^6 cells)” value turned out to be 85.7 μL/min/10^6 cells; the “Qualified t1/2” value came out at 16.2 min. Besides, in the data set on Rat hepatocytes, the “Fold change from 5-MeO-DMT, CLint” value is reported as 1.5 fold; the “Fold change from 5-MeO-DMT, t1/2” value is on record as 1.5 fold; the “Qualified CLint (μL/min/10^6 cells)” value was 205.5 μL/min/10^6 cells; the “Qualified t1/2” value turned out to be 6.76 min.
In the case of `[2H]C([2H])(c1c[nH]c2ccccc12)C([2H])([2H])N(C)C` [Compound D4DMT, α,α,β,β-tetradeuterio-DMT], in data set [7], the “onset and behaviour disrupting effects compared to equal doses of DMT” value was “shorter time to onset and potentiation of behaviour disrupting effects”.
`NCCc1c[nH]c2ccc(O)cc12` [Serotonin, serotonin]: in data set [2], the “Intrinsic Clearance (μL/min/mg protein)” value is 151.0 μL/min/mg protein and the “half-life” value worked out at 9.2 min.
Regarding `COc1ccc2[nH]cc(CCN(C)C)c2c1` [Compound 5-MeO-DMT, 5-Methoxy-N,N-dimethyltryptamine], in data set [5], the hepatocyte CLint came out at 104 µL/min/1e6 cells and the half-life came to 13.3 min. Moreover, in [6], the half-life at 1 μM was 4.46 min and the hepatocyte CLint at 1 μM is 312 µL/min/1e6 cells.
On to `[2H]C([2H])([2H])N(CCc1c[nH]c2ccccc12)C([2H])([2H])[2H]` [SPL028vii, N,N-hexadeuterio-dimethyltryptamine], for which, in [8], the “Intrinsic clearance of SPL026 minus intrinsic clearance of SPL028vii” value was determined as 2.3 μL/min/million cells.
Turning to `NCc1ccccc1` [Benzylamine, benzylamine], in [2], the “Intrinsic Clearance (μL/min/mg protein)” value is 60.0 μL/min/mg protein and the “half-life” value is given as 23.2 min.
